PubChem BioAssay (NCI)
Where “and” joins values, the source holds several entries; their conditions need not be identical. Identical values can stand only once.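 All cell lines were grown in 96-well plates and treated with compound for 48 hours. GI50 = concentration required for 50% inhibition of growth. TGI denotes the concentration required for complete inhibition of growth.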

Tested on: MDA-MB-468 breast
Assay: DTP human tumour cell line panel, 48 h

| SMILES | GI50 | TGI |
| --- | --- | --- |
| CCOC(=O)c1cc(C(=O)c2cc(OC)c(OC)c(OC)c2)n2ncccc12 | 248 nM | 32.2 µM |
| CCN1C(=S)N(c2ccccc2)C2NC(=S)N(/N=C/C=C/c3ccccc3OC)C21 (stereo not drawn) | 292 nM | 1.06 µM |
| CC(=O)Nc1ccc2c(c1)C(c1ccccc1Cl)=Nc1c(n[nH]c1C)N2 | 1630 nM | > 25 µM |
| CCN(Cc1ccc(C)cc1)c1ccc(CO)c(Cl)c1 | 16.9 nM | 0.0445 µM |
| CCC(C)[C@H]1O[C@]2(CC[C@@H]1C)C[C@@H]1C[C@@H](C/C=C(\C)[C@@H](OC3C[C@H](OC)C(O[C@H]4C[C@H](OC)[C@@H](O)[C@H](C)O4)[C@H](C)O3)[C@@H](C)/C=C/C=C3\CO[C@@H]4[C@H](O)C(C)=C[C@@H](C(=O)O1)[C@]34O)O2 (stereo partly drawn) | 1600 nM | 3.4 µM |
| COc1cc(C2Cc3ncccc3-c3[nH]c(=O)c4cccnc4c32)cc(OC)c1OC (stereo not drawn) | 340 nM | – |
| CCSCC1CC(O)(c2ccccc2)CC(c2ccc(F)cc2)O1 (stereo not drawn) | 2040 nM | 6.05 µM |
| COc1ccc(C2=N[C@@H](Cc3ccccc3)C(=O)Nc3ccsc32)cc1 | 1760 nM | 4.58 µM |
| COc1cc(OC)c(S(N)(=O)=O)cc1C(=O)/C=C/c1ccccc1 | 1200 nM | 9.28 µM |
| C/C(=N\NC(=S)N1CCCCC1)c1ccccn1 | < 10 nM | 0.135 µM |
| CCN(CC)c1ccc(/C=N/NC(=O)CSc2nc3ccccc3c(=O)n2CCc2ccc(S(N)(=O)=O)cc2)c(O)c1 | 2120 nM | > 100 µM |
| Cc1cccc(N(C)C(=O)[C@@H]2[C@H](O)CCN2c2nc(C)cc(C(F)(F)F)c2C#N)c1 | 17300 nM | 51.3 µM |
| CCCCCCNC(=O)Oc1ccc(/C(=C(/C)c2ccc(OC)cc2)c2ccc(OCCN3CCCCCC3)cc2)cc1 | 2040 nM | 4.76 µM |
| Cc1cc(O)c(=O)cc2c1C[C@H]1CC(C)(C)/C=C/C[C@]3(C)Oc4cc(=O)c(O)cc(C)c4C[C@H]3C[C@H](O)[C@@]1(C)O2 | < 15.2 nM and 7.03 nM | 0.243 µM and 0.106 µM |
| Cc1nc([P+](c2ccccc2)(c2ccccc2)c2ccccc2)c(Sc2sc(-c3ccccc3)nc2[P+](c2ccccc2)(c2ccccc2)c2ccccc2)o1 | 417 nM | 3.28 µM |
| COc1cc(/C=C\c2cc(OC)c(OC)c(OC)c2)cc(N/C=C\C(=O)c2ccc(OC(F)(F)F)cc2)c1OC | 3160 nM | > 100 µM |
| OCCN1CCN(CCCN2c3ccccc3Sc3ccc(Cl)cc32)CC1 | 1270 nM | 2.7 µM |
| COC[C@@H](N=C1NC(=O)/C(=C/c2ccc3ncccc3c2)S1)c1ccccc1 | 4510 nM | 17.6 µM |
| O=C(CCCCCCNC(=O)C(O)(O)C(F)(F)F)Nc1ccc(Cl)cc1 | 1380 nM | 22.2 µM |
| O=S(=O)(NCCCNc1nccc(-c2c(-c3ccc(O)cc3)nc3sccn23)n1)c1ccc(F)cc1 | 2000 nM | 9.43 µM |
| CC(C)(C)c1ccc(S(=O)(=O)Oc2ccc3c4c(c(=O)oc3c2)CCCCC4)cc1 | 3410 nM | > 100 µM |

| SMILES | GI50 | TGI |
| --- | --- | --- |
| Cc1nc2ccc(Nc3nc(Cl)nc(N4CCOCC4)n3)cc2n1Cc1ccccc1 | 2210 nM | 7.09 µM |
| Fc1cc2[nH]ncc2c2c3c(c(-c4cn[nH]c4C(F)(F)F)nc12)CCCC3 | 1580 nM | 4.35 µM |
| COc1ccc(/C=C/C(=O)c2cc(OC)c(OC)c(OC)c2)cc1OCC(=O)Nc1nc2ccc(OC(F)(F)F)cc2s1 | 3520 nM | 21.2 µM |
| Fc1cccc(COc2ccc(Nc3ncnc4sc(-c5cccs5)cc34)cc2Cl)c1 | 201 nM | 2.31 µM |
| CCOC(=O)c1ccc(NC(=O)Nc2nncs2)cc1 | 176 nM | 14.8 µM |
| CN(c1ncccc1CNc1nc(Nc2ccc3c(c2)CC(=O)N3)ncc1C(F)(F)F)S(C)(=O)=O | 1830 nM and 1620 nM | 4.04 µM and 4.84 µM |
| O=C(Nc1ccc2[nH]nc(-c3ccncc3)c2c1)[C@@H]1CCN(CC(=O)N2CCN(c3ccc(-c4ncccn4)cc3)CC2)C1 | > 100000 nM | > 100 µM |
| O=c1c2c(=NCCN3CCCC3)cc3c(=O)n(CCCN4CCOCC4)c(=O)c4c(-c5ccc(CN6CCCC6)cc5)cc(c(O)n1CCCN1CCOCC1)c2c4-3 | 32.4 nM | 0.119 µM |
| NS(=O)(=O)c1ccc(Nc2cc(-c3cccc(O)c3)[nH]n2)cc1 | 9580 nM | > 25 µM |
| CC(N)C(Cc1ccc(Cl)cc1)c1ccc(Cl)cc1 (stereo not drawn) | 2960 nM | 11.7 µM |
| O=C(Cc1ccc(/C=C/C(=O)c2ncc[nH]2)cc1)Nc1ccc(F)cc1 | 974 nM | 3.14 µM |
| Cc1cc2nc3c4cc(O)ccc4n(CCN(C)C)c3nc2cc1C | 816 nM | 2.78 µM |
| CC(=O)c1ccc2c(c1)c1cc(C(C)=O)ccc1n2CCNC(C)C | 330 nM | 1.74 µM |
| Nc1nccc(-c2c(-c3ccc(F)cc3)ncn2C2CCNCC2)n1 | 649 nM and 2520 nM | > 10.8 µM and 11.5 µM |
| O=Nc1ccc(O)c(=O)cc1 | 739 nM | 2.44 µM |
| COc1ccc(C2CC(c3cccc(Nc4ccnc5cc(Cl)ccc45)c3)=NN2C=O)cc1 (stereo not drawn) | 239 nM | 0.836 µM |
| CC(=O)O[C@H]1C(=O)[C@@]2(C)C(C(OC(=O)c3ccccc3)[C@]3(O)C[C@H](OC(=O)C(OC(=O)CCCC(=O)NCCCN(C)C)C(NC(=O)c4ccccc4)c4ccccc4)C(C)=C1C3(C)C)C1(OC(C)=O)COC1C[C@@H]2O (stereo partly drawn) | < 10 nM | 10.4 µM |
| N#Cc1c(-n2c(Br)c(Br)c3cc(Br)ccc32)[nH]c2c(Br)cc(Br)cc12 | 907 nM | 3.34 µM |
| C#Cc1nc(/C=C/C(=O)c2nccn2C)cs1 | 470 nM | 1.47 µM |
| CS(=O)(=O)Nc1cncc(-c2ccc3ncnc(Nc4ccc(F)c(Cl)c4)c3c2)c1 | 181 nM | 0.936 µM |
| C=C1CC[C@@H]2[C@](C)(COC(C)=O)[C@H](OC(C)=O)CC[C@@]2(C)[C@@H]1CC(Nc1ccc(S(=O)(=O)NC(C)=O)cc1)C1=CCOC1=O (stereo partly drawn) | 1530 nM | 3.13 µM |
